Four compounds from ChEMBL document CHEMBL1123040, “Molecular mechanism of action of 5,6-dihydroxytryptamine. Synthesis and biological evaluation of 4-methyl-, 7-methyl-, and 4,7-dimethyl-5,6-dihydroxytryptamines” (J Med Chem, 1985) can be followed below.

By IC50 is commonly meant the concentration that inhibits the measured activity by half.

Test [1] addresses T1, Sodium-dependent serotonin transporter (Rattus norvegicus, UniProt P31652). Description: Inhibitory activity against incorporation of [3H]5-HT transporter uptake into the differentiated N-2a cells. The test is classed as cell-based.
For test [2], the target named is T1, Sodium-dependent serotonin transporter. Nature of the test: Inhibitory activity against incorporation of Serotonin transporter uptake into the differentiated N-2a cells. The class given is cell-based.

T1 sequence (P31652 whole entry): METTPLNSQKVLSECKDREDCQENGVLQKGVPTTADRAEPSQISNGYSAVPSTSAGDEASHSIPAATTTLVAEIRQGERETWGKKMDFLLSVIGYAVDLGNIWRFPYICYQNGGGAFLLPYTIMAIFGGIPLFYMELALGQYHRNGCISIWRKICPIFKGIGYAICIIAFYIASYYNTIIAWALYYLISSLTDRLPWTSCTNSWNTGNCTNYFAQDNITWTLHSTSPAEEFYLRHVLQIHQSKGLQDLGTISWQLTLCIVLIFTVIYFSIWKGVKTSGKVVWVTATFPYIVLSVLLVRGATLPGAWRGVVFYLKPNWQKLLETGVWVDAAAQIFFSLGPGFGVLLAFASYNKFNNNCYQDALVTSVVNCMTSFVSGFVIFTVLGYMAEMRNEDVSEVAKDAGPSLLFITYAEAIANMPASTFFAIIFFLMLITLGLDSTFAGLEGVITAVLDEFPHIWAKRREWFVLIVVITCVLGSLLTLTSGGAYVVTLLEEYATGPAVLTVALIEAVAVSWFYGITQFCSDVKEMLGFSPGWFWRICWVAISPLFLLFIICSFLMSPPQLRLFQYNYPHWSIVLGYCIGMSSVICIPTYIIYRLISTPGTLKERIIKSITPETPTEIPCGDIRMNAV

`Cc1c(O)c(O)cc2c(CCN)c[nH]c12` gave an IC50 in test [1] of 51.8 µM.
The same measure, in the same setting: the figure for `Cc1c(O)c(O)c(C)c2c(CCN)c[nH]c12` is 19.7 µM; for `Cc1c(O)c(O)cc2[nH]cc(CCN)c12` it is 23 µM.
With `NCCc1c[nH]c2cc(O)c(O)cc12`, the half-inhibitory concentration (IC50) in test [2] was 6 µM.
